# Patent EP4628081A1, “COMPOSITION FOR REMOVING HELICOBACTER PYLORI COMPRISING ZASTAPRAZAN OR PHARMACEUTICALLY ACCEPTABLE SALT THEREOF” (priority 2022, dated 2024)
# Like-named read-outs stand apart in the source and are kept apart here.
# Assays:
# [1] = test system: Helicobacter pylori (ATCC43504); test: MIC and MBC by microdilution method according to CLSI guideline; assay type: cell-based; conditions: ATCC43504, 72 h
# Procedure: Helicobacter pylori (ATCC43504): Type strain for antibiotic susceptibility testing according to the Clinical & Laboratory Standards Institute (CLSI) guidelines.
# (§1) The medium was prepared using Müller-Hinton broth (MH, Difco Inc., Sparks, MD, USA) [w/7% […] (Sigma CO., LTD., St. Louis, USA), 0.4% isovitalex (BBL Inc., Sparks, MD, USA)].
# (§2) An antibiotic susceptibility testing was performed using the microdilution method according to the CLSI guideline. Two-fold serial dilution was performed in 12 steps in a 48-well plate with the highest concentration of 128 µg/mL for amocixillin and clarithromycin and 256 µg/mL for omeprazole. The bacteria were inoculated into wells containing only medium without antibiotics to prepare the positive control group, and the wells containing only medium without antibiotics or inoculated bacteria were used as the negative control group. The concentration range of the test substances, zastaprazan (JP-1366) and fexuprazan, was determined through preliminary experiments. H. pylori stored in a deep freezer (-70 °C or lower) was thawed, inoculated onto BHI agar (w/7% laked horse blood and 0.4% isovitalex), cultured at 37 °C under microaerobic conditions of 5% O2, 10% CO2, and 85% N2 gas for three days, and then subcultured onto a fresh medium. The cultured bacteria were harvested, suspended in PBS, inoculated into each well at a concentration of 5 x 10^5 CFU/mL, and then cultured at 37 °C under microaerobic conditions of 5% O2, 10% CO2, and 85% N2 gas for three days. The lowest concentration at which no bacterial growth was observed was determined as the MIC. Thereafter, 10 µL of the culture solution from each well at different concentrations was spotted onto BHI agar (w/7% laked horse blood and 0.4% isovitalex) containing no antibiotics and cultured for three days at 37 °C under microaerobic conditions. The lowest concentration at which no bacteria growth occurred was determined as the MBC.
# To determine the MBC, 10 µl of the culture solution from each well was spotted on a solid medium containing no antibiotics or test substances after the MIC determination, and bacterial growth was examined.
# (§3) All tests were performed in duplicate, and the results were determined by conducting the experiments in triplicate.
# [2] = test system: Helicobacter pylori 26695 (ATCC700329); test: as above; assay type: cell-based; conditions: ATCC700329, 72 h
# Procedure: Helicobacter pylori 26695 (ATCC700329): A strain isolated from a patient known to be associated with the development of gastric cancer. The strain is cytotoxin associated gene (CagA)-positive and vacuolating cytotoxin (VacA)-positive and has a well-known genetic background, so it is mainly used for research purposes.
# as §1
# An antibiotic susceptibility testing was performed using the microdilution method according to the CLSI guideline. […] The concentration range of the test substances, zastaprazan (JP-1366) and fexuprazan, was determined through preliminary experiments. […] The lowest concentration at which no bacterial growth was observed was determined as the MIC. […] The lowest concentration at which no bacteria growth occurred was determined as the MBC.
# To determine the MIC, visual inspection was performed and the absorbance was measured at 600 nm, and the growth was confirmed based on the absorbance of the negative control group containing only the medium. […]
# as §3
# [3] = test system: Helicobacter pylori SS1 (mouse colonizing strain); test: as above; assay type: cell-based; conditions: 72 h, 3 days; for MBC: spotted on antibiotic-free BHI agar, unit from method b141/b236, table prints none
# Procedure: Helicobacter pylori SS1 (mouse colonizing strain): A strain known as Sydney strain. The strain is CagA-positive and VacA-positive and has been confirmed to infect and colonize in C57BL/6 mice. The strain is used in animal testing.
# as §1
# as §2, with “Thereafter, 10 µL of the culture solution from each well at different concentrations was spotted onto BHI agar (w/7% laked horse blood and 0.4% isovitalex) containing no antibiotics and cultured for three days at 37 °C under microaerobic conditions.” left out, “MBC. […]” for “MBC.”
# as §3
# [4] = test system: Helicobacter pylori SS1 (mouse colonizing strain); test: Clarithromycin MIC and MBC by microdilution with or without JP-1366 in the medium; assay type: cell-based; conditions: medium containing zastaprazan (JP1366) at 1/2 MIC concentration vs MH medium
# Procedure: Helicobacter pylori SS1 (mouse colonizing strain): Known as Sydney strain, the strain is CagA-positive and VacA-positive, and has been confirmed to colonize mice C57BL/6 and is used in animal experiments.
# Zastaprazan (JP-1366) was supplied as a product prepared at a concentration of 10 mM in dimethyl sulfoxide (DMSO) solvent, and clarithromycin was prepared at a concentration of 5 mg/mL in DMSO solvent.
# An antibiotic susceptibility test was performed by the microdilution method according to CLSI guideline.
# The antibiotic susceptibility test was performed using MH broth (7% horse serum, 0.4% IsoVitalex), and the susceptibility test medium for zastaprazan (JP-1366) was prepared at this time. […] Using the medium prepared in this way, clarithromycin was serially diluted 2-fold and in 16 steps, with a maximum concentration of 16 µg/mL. Wells containing only the medium without antibiotics were used as a negative control group, and wells inoculated only with the bacteria in the medium without antibiotics were used as a positive control group. […] The lowest concentration of the sample at which no bacterial growth was observed was determined as the MIC. […] The lowest concentration at which no bacterial growth was observed was determined as the minimum bactericidal concentration(MBC). […]
# [5] = Solubility observed during MIC analysis; assay type: physicochemical; conditions: in MIC medium; formation of suspension, interference in visual/absorbance analysis
# From the text: Referring to Table 4 below, since the solubility of zastaprazan (JP-1366) was low, the MIC analysis was difficult (poor solubility, formation of suspension, interference in visual/absorbance analysis), so the inhibitory effect on the H. pylori strains was confirmed through the MBC index.
# [6] = test system: patients with erosive gastroesophageal reflux disease; test: Phase 2 clinical trial, healing of mucosal breaks and symptom assessment; assay type: in vivo, human; conditions: within 24 hours and for seven days after administration; subject diary
# Procedure: H. pylori testing was performed by 13C-urea breath test (13C-UBT), gastroscopy (Campylobacter-like organism test, CLO), or tissue biopsy to confirm H. pylori positivity/negativity. […] This clinical trial was a randomized, double-blind, active-controlled, multicenter, phase 2 clinical trial targeting patients with erosive gastroesophageal reflux disease. After the subjects gave written consent to participate in the clinical trial, a screening test was conducted. […] At this time, the subjects were stratified by grade (A, B, C, D) according to the LA classification system classified by upper gastrointestinal endoscopy. Randomly assigned subjects took the clinical trial drug once a day according to the assigned administration group for four weeks. After four weeks of administration of the clinical trial drug, the subjects visited the clinical trial institution to undergo an upper gastrointestinal endoscopy to assess whether they were healed. Healed subjects underwent a Safety Follow-Up (F/U) two weeks later, and unhealed subjects were administered the clinical trial drug for additional four weeks (a total of 8 weeks of administration) and visited the clinical trial institution to undergo an upper gastrointestinal endoscopy. […]
smiles,measurement,setting,value
"CC1(C)S[C@@H]2[C@H](NC(=O)[C@H](N)c3ccc(O)cc3)C(=O)N2[C@H]1C(=O)O [Amoxicillin, Amoxicillin Trihydrate]",MBC,"[1]; strain 43504, spotted on antibiotic-free BHI agar, 3 days, unit from method b141/b236, table prints none, read-out: MBC",0.032 µg/mL
same,MBC,"[2]; strain 26695, spotted on antibiotic-free BHI agar, 3 days, unit from method b141/b236, table prints none, read-out: MBC",0.032 µg/mL
same,MBC,[3],0.25 µg/mL
CC[C@H]1OC(=O)[C@H](C)[C@@H](O[C@H]2C[C@@](C)(OC)[C@@H](O)[C@H](C)O2)[C@H](C)[C@@H](O[C@@H]2O[C@H](C)C[C@H](N(C)C)[C@H]2O)[C@](C)(OC)C[C@@H](C)C(=O)[C@H](C)[C@@H](O)[C@]1(C)O [Clarithromycin],MBC,[1],0.063 µg/mL
same,MIC,[1],0.032 µg/mL
same,MBC,[2],0.125 µg/mL
same,MIC,"[3]; 37 °C, microaerobic, unit from method b141, table prints none",0.032 µg/mL
same,MBC,[3],0.125 µg/mL
same,MBC lowered by,[4],about 1/2
"Cc1cccc(C)c1CNc1cc(C(=O)N2CCC2)cn2c(C)c(C)nc12.O=C(O)CC(O)(CC(=O)O)C(=O)O [JP-1366, azetidin-1-yl{8-[(2,6-dimethylbenzyl)amino]-2,3-dimethylimidazo[1,2-a]pyridin-6-yl}methanone citrate salt]",solubility,[5],low
same,"evaluation of all symptoms (heartburn, acid reflux, heartburn/acid reflux)",[6],all symptoms tended to be ameliorated
COc1ccc2[nH]c([S+]([O-])Cc3ncc(C)c(OC)c3C)nc2c1 (stereo not shown) [Omeprazole],MBC,[1],64 µg/mL
same,MIC,[1],32 µg/mL
